Measurements taken from patent publication USRE49873E1, “APP specific bace inhibitors (ASBIs) and uses thereof” (BUCK INSTITUTE FOR RESEARCH ON AGING, priority 2012, dated 2024).

Tests used:
[1] = target: T1, BACE cleavage of the MBP-C125 APP substrate (Homo sapiens, UniProt P05067); test: ASBI assay a): BACE cleavage of MBP-C125 substrate (C99 by AlphaLISA); format: biochemical
T1 construct: purchased Sigma (methods); R&D (HTS description) B9059; 931-AS-050
Procedure: As illustrated in the Examples, in one embodiment, an MBP-C125 APP695 wt fusion protein can be used as one of the substrates. The second substrate can be the commercially available P5-P5′ fluorescence substrate. Each of these substrates is incubated with recombinant BACE (R&D (cat#931-AS-050) in, for example, a 96 well plate format. For the MBP-C125 substrate the C-99 product from the BACE cleavage can be measured using an AlphaLisa assay as a readout. For the P5-5′ substrate the […] upon BACE cleavage can be used as the readout. An ASBI would inhibit the BACE cleavage of the MBP-C125 substrate while not being inhibitory of the fluorescence substrate.
A protein construct of Maltose-Binding-Protein carrying the 125 C-terminal residues of APP (1 uL of 1 mM in water) was incubated with a flavonoid (100 uM) for 15 minutes. The mix was then submitted to cleavage by BACE (Sigma #B9059, 5 μl of 3 unit/ml in BACE buffer) for 30 minutes. After 0, 10, 20 and 30 minutes, 2 uL the reaction mixture were frozen and the different time points were quantified simultaneously for the amount of APP-C99 created. The quantification was done by using a Perkin Elmer ALPHALisa Amyloid Amyloid Beta kit (AL275C) modified by replacing the anti-Abeta acceptor beads (AL275AC) with anti-APP acceptor beads (AL275AC) and making the antibody mix with 2×ALPHALisa buffer. […]

in vivo = test: in vivo; parameters: species or system mice; details: mouse
Procedure: The brain penetrance of galangin and progalangin were assessed in a standard PK comprising subcutaneous (Sub-Q) injection of 5 adult non-transgenic mice with 50 ul of a 5 mg/ml stock of compound in dimethylsulfoxide (DMSO) or a dose of 10 mg/kg for a 25 g mouse. Injected mice were anesthetized with ketamine/xylazine at 1, 2, 4, 6, and 8 hours and blood collected by cardiac puncture. The mice were then perfused with saline and brain tissue dissected and snap frozen on dry ice. Blood was centrifuged at 3000 rpm for 10 minutes and the plasma supernatant collected. Both plasma and the right hemibrain were sent to Integrated Analytical Solutions (IAS, Berkeley, Calif.) with a reference sample of compound for compound level analysis in tissue and plasma. The compound levels were determined using a LC-MS/MS approach.
CNS exposure studies were performed and consisted of a time-course design to collect heparinized plasma and brains. Following sc administration of the galangin or progalangin (compound-2) at 10 mg/kg, plasma and brain levels of the compounds were determined by quantitative LC/MS/MS methodology. Plasma samples were precipitated with acetonitrile:methanol (1:1) cocktail containing an internal standard. The brain samples were homogenized directly in ethylacetate or extracted from 5M guanidine homogenates with the liquid-liquid method. The resulting supernatant was evaporated to dryness and subjected to the LC/MS/MS analysis. For each compound 5 mice were used for the analysis. The brain-to-plasma ratios and plasma/brain Cmax levels were then determined (see, e.g., FIG. 8).

MBP-C125 APP = MBP-C125 APP (Homo sapiens, UniProt P05067); test: Nitrocellulose filter ligand-binding (ligand blot) assay; details: qualitative; UV and MALDI detection
Procedure: To explore the interaction of ASBIs with APP a ligand blot technique was used, where MBP-C125 APP was dot blotted on a nitrocellulose blot and binding to the protein was detected upon treatment with the bioflavonoids. A nitrocellulose filter-binding assay with bovine serum albumin (BSA) was used as a control. The binding of bioflavonoids was determined using both UV and MALDI mass spectrometric analysis.

T1 sequence (P05067 646-770 limits assumed): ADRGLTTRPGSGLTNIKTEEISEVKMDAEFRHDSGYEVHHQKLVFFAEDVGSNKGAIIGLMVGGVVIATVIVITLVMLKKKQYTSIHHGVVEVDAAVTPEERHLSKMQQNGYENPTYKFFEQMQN
Chain of MBP-C125 APP (P05067 646-770 limits assumed): as above

SMILES: O=c1c(O)c(-c2ccccc2)oc2cc(O)cc(O)c12 [Galangin]
- inhibition of BACE cleavage of the MBP-C125 substrate ([1]; HTS at 10 uM, flavonoid panel at 100 uM): inhibiting the cleavage of the MBP substrate by BACE
- dose at which effective as an ASBI ([1]; in the ASBI assays): 50 µM
- brain penetration (in vivo): did show some brain penetration
- plasma levels versus brain tissue levels (in vivo): Plasma levels were greater than brain tissue levels
- brain Cmax of galangin (in vivo; sc, 10 mg/kg): ~50 ng/g
- brain to plasma ratio (in vivo; sc, 10 mg/kg): 1:10
- concentration at 1 h (in vivo; sc, 10 mg/kg): 40 ng/g
- binding to the APP substrate (MBP-C125 APP): shows binding to the APP substrate
